From publication PMC12111771, “Structural Characterization and Bioactivity Evaluation of Selenium-Modified Dihydromyricetin from Vine Tea” (Foods, 2025) come the findings set out here.

One experiment addresses α-glucosidase (α-GLU). The experiment can be described thus: PNPG hydrolysis assay with commercial enzyme, absorbance at […] nm. It counts as biochemical.
In another experiment the target is α-amylase (α-AMY). The experiment is described as follows: starch hydrolysis DNS assay with commercial enzyme, absorbance at […] nm. It is filed as biochemical.

In brackets after ≈: the same amount, converted by molar mass.

On to `O=C1c2c(O)cc(O)cc2O[C@H](c2cc(O)c(O)c(O)c2)[C@H]1O` [DHM, Dihydromyricetin], for which the IC50 (usually the concentration at which inhibition is half-maximal) against α-glucosidase (α-GLU) is 96.12 µg/mL (≈ 0.3 mM); against α-amylase (α-AMY), 4614 µg/mL (≈ 14.4 mM).
